Results reported in ChEMBL document CHEMBL1155934, “Novel quinolinonyl diketo acid derivatives as HIV-1 integrase inhibitors: design, synthesis, and biological activities” (J Med Chem, 2008).
Calls of active or inactive are those of the source. The rule behind the calls is not given here.

Columns and labels:
[1] = target: T1, Human immunodeficiency virus type 1 integrase (Human immunodeficiency virus 1, UniProt Q7ZJM1); experiment: Inhibition of recombinant HIV1 integrase strand transfer activity by gel-based assay in presence of magnesium
T1 sequence (Q7ZJM1 whole entry): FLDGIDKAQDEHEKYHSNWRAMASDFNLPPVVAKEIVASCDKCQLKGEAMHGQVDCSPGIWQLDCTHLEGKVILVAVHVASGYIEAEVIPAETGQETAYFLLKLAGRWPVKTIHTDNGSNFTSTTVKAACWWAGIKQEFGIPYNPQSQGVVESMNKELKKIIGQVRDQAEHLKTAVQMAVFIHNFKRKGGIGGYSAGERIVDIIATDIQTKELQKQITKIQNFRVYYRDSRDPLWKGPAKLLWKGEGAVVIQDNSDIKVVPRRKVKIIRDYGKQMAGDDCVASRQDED

[2] = target: T1, Human immunodeficiency virus type 1 integrase; experiment: Inhibition of recombinant HIV1 integrase 3'-end processing activity by gel-based assay in presence of magnesium
[3] = test system: U-937; experiment: Cytotoxicity against human U937 cells after 24 hrs by MTT assay; conditions: u-937, 24 h
[4] = target: T1, Human immunodeficiency virus type 1 integrase
Description: Inhibition of recombinant HIV1 integrase strand transfer activity by high throughput electrochemiluminescent assay in presence of magnesium

[5] = target: Human immunodeficiency virus type 1 integrase (Human immunodeficiency virus 1) (UniProt Q7ZJM1); experiment: Inhibition of HIV1 recombinant integrase in presence of manganese
Human immunodeficiency virus type 1 integrase (Human immunodeficiency virus 1), sequence (Q7ZJM1 as listed by the source): as the sequence (Q7ZJM1 whole entry) above

[6] = test system: Human immunodeficiency virus 1; experiment: Antiviral activity against HIV1-infected in human H9/HTLV 3B cells after 4 days; format: functional, organism-based; conditions: Human immunodeficiency virus 1, 96 h

Row | EC50 [6] | SMILES | IC50 [1] | IC50 [2] | CC50 [3] | IC50 [4] | Activity [5]
1 |  | CCOC(=O)/C(O)=C/C(=O)c1cn(Cc2ccc(F)cc2)c2c(Cl)cccc2c1=O | 5.2 µM | > 333 µM | > 200 µM | 32 µM | Active
2 |  | O=C(O)/C(O)=C/C(=O)c1cn(Cc2ccc(F)cc2)c2c(F)cccc2c1=O | 0.16 µM | 16 µM | > 200 µM | 0.018 µM | Active
3 |  | O=C(O)/C(O)=C/C(=O)c1cn(Cc2ccc(F)cc2)c2cc(Cl)c(Cl)cc2c1=O | 0.075 µM | 11 µM | 156 µM | 0.033 µM | Active
4 |  | O=C(O)/C(O)=C/C(=O)c1c[nH]c2cc(Cl)ccc2c1=O | 17 µM | > 333 µM |  | 37 µM | 
5 |  | CCOC(=O)/C(O)=C/C(=O)c1c[nH]c2ccc(Cl)cc2c1=O | 2.1 µM | 120 µM |  | 3.3 µM | 
6 |  | O=C(O)/C(O)=C/C(=O)c1cn(Cc2ccc(F)cc2)c2c(Cl)cccc2c1=O | 0.51 µM | 44 µM | > 200 µM |  | Active
7 |  | CCOC(=O)/C(O)=C/C(=O)c1cn(Cc2ccc(F)cc2)c2cc(N3CCCC3)ccc2c1=O | 2.7 µM | 110 µM | > 200 µM | 2.3 µM | Active
8 |  | CCOC(=O)/C(O)=C/C(=O)c1cn(Cc2ccc(F)cc2)c2cc(F)ccc2c1=O | 1.2 µM | > 333 µM | > 200 µM | 1.3 µM | Active
9 |  | O=C(O)/C(O)=C/C(=O)c1cn(Cc2ccc(F)cc2)c2ccccc2c1=O | 0.06 µM | 14 µM | > 200 µM | 0.04 µM | Active
10 |  | CCOC(=O)/C(O)=C/C(=O)c1cn(Cc2ccc(F)cc2)c2ccc(Cl)cc2c1=O | 3 µM | > 333 µM |  | 21 µM | Active
11 |  | CCOC(=O)/C(O)=C/C(=O)c1cn(Cc2ccc(F)cc2)c2c(F)cccc2c1=O | 5.2 µM | > 333 µM | > 200 µM | 26 µM | Active
12 |  | O=C(O)/C(O)=C/C(=O)c1ccc2c(c1)c(=O)c(C(=O)/C=C(\O)C(=O)O)cn2Cc1ccc(F)cc1 |  |  | > 200 µM |  | 
13 |  | CCOC(=O)/C(O)=C/C(=O)c1cn(Cc2ccc(F)cc2)c2ccc(F)cc2c1=O | 0.23 µM | > 333 µM | > 200 µM | 0.58 µM | Active
14 |  | CCOC(=O)/C(O)=C/C(=O)c1c[nH]c2cc(Cl)ccc2c1=O | 224 µM | > 333 µM |  | > 111 µM | 
15 |  | CCOC(=O)/C(O)=C/C(=O)c1cn(Cc2ccc(F)cc2)c2cc(Cl)c(Cl)cc2c1=O | 1.8 µM | 135 µM | 72 µM | 3.9 µM | Active
16 |  | CCOC(=O)/C(O)=C/C(=O)c1cn(Cc2ccc(F)cc2)c2cc(Cl)ccc2c1=O | 3.6 µM | > 333 µM |  | 14 µM | Active
17 | 1 µM | O=C(O)C(=O)CC(=O)c1cccn1Cc1ccc(F)cc1 |  |  |  |  | 
18 |  | CCOC(=O)/C(O)=C/C(=O)c1cn(Cc2ccc(F)cc2)c2ccccc2c1=O | 0.44 µM | 135 µM | 99 µM | 0.67 µM | Active
19 |  | O=C(O)/C(O)=C/C(=O)c1cn(Cc2ccc(F)cc2)c2cc(N3CCCC3)ccc2c1=O | 0.18 µM | 14 µM | > 200 µM | 0.028 µM | Active
20 |  | O=C(O)/C(O)=C/C(=O)c1c[nH]c2ccc(Cl)cc2c1=O | 56 µM | 166 µM |  | > 111 µM | 
21 |  | O=C(O)/C(O)=C/C(=O)c1cn(Cc2ccc(F)cc2)c2cc(F)ccc2c1=O | 0.05 µM | 4.4 µM | > 200 µM | 0.02 µM | Active
22 |  | O=C(O)/C(O)=C/C(=O)c1cn(Cc2ccc(F)cc2)c2ccc(F)cc2c1=O |  | 2.3 µM | > 200 µM |  | Active
23 |  | O=C(O)/C(O)=C/C(=O)c1cn(Cc2ccc(F)cc2)c2ccc(Cl)cc2c1=O | 0.4 µM | 6.4 µM | > 200 µM | 0.028 µM | Active
24 |  | O=C(O)/C(O)=C/C(=O)c1cn(Cc2ccc(F)cc2)c2cc(Cl)ccc2c1=O | 0.11 µM | 4 µM | > 200 µM | 0.019 µM | Active
